In patent US9113629B2, “4-amino-6-(4-substituted-phenyl)-picolinates and 6-amino-2-(4-substituted-phenyl)-pyrimidine-4-carboxylates and their use as herbicides” (DOW AGROSCIENCES LLC, priority 2013, dated 2015):
Where two headings read alike, the source gives them in different places.

Tests used:
[1] = tested on: Key Broadleaf Weed and Crop Species; experiment: Post-emergent Test II herbicidal activity (Table 5); format: in vivo; settings: post-emergence, 336 h, 14 days after application; for pest or weed control at 70 g/ha: application rate 70 g ai/ha; for pest or weed control at 140 g/ha: application rate 140 g ai/ha
Experimental: (§1) Post-emergent Test II: Seeds or nutlets of the desired test plant species were planted in Sun Gro Metro-Mix® 360 planting mixture, which typically has a pH of 6.0 to 6.8 and an organic matter content of about 30 percent, in plastic pots with a surface area of 64 square centimeters. When required to ensure good germination and healthy plants, a fungicide treatment and/or other chemical or physical treatment was applied. The plants were grown for 7-21 d in a greenhouse with an approximate 15 h photoperiod which was maintained at about 23-29° C. during the day and 22-28° C. during the night. Nutrients and water were added on a regular basis and supplemental lighting was provided with overhead metal halide 1000-Watt lamps as necessary. The plants were employed for testing when they reached the first or second true leaf stage.
(§2) A weighed amount, determined by the highest rate to be tested, of each test compound was placed in a 25 mL glass vial and was dissolved in 4 mL of a 97:3 v/v mixture of acetone and DMSO to obtain concentrated stock solutions. […] The concentrated stock solutions obtained were diluted with 20 mL of an aqueous mixture containing acetone, water, isopropyl alcohol, DMSO. Atplus 411F crop oil concentrate, and Triton® X-155 surfactant in a 48.5:39:10:1.5:1.0:0.02 v/v ratio to obtain spray solutions containing the highest application rates. Additional application rates were obtained by serial dilution of 12 mL of the high rate solution into a solution containing 2 mL of 97:3 v/v mixture of acetone and DMSO and 10 mL of an aqueous mixture containing acetone, water, isopropyl alcohol, DMSO, Atplus 411F crop oil concentrate, and Triton X-155 surfactant in a 48.5:39:10:1.5:1.0:0.02 v/v ratio to obtain ½×, ¼×, ⅛× and 1/16× rates of the high rate. Compound requirements are based upon a 12 mL application volume at a rate of 187 liters per hectare (L/ha). Formulated compounds were applied to the plant material with an overhead Mandel track sprayer equipped with 8002E nozzles calibrated to deliver 187 L/ha over an application area of 0.503 square meters at a spray height of 18 inches (43 cm) above the average plant canopy height. Control plants were sprayed in the same manner with the solvent blank.
(§3) The treated plants and control plants were placed in a greenhouse as described above and watered by subirrigation to prevent wash-off of the test compounds. After 14 d, the condition of the test plants as compared with that of the untreated plants was determined visually and scored on a scale of 0 to 100 percent where 0 corresponds to no injury and 100 corresponds to complete kill.

[2] = tested on: Key Grass and Sedge Weeds as well as Grass Crops; experiment: Post-emergent Test II herbicidal activity (Table 6); format: in vivo; settings: post-emergence, 336 h; for pest or weed control at 70 g/ha: 70 g ai/ha; for pest or weed control at 140 g/ha: 140 g ai/ha
Experimental: as §1, §2, §3

[3] = ABUTH: velvetleaf (Abutilon theophrasti), read-out: Visual Growth Reduction (%) 14 Days After Application, ABUTH
[4] = AMARE: redroot pigweed (Amaranthus retroflexus), read-out: Visual Growth Reduction (%) 14 Days After Application, AMARE
[5] = BRSNN: oilseed-rape, canola (Brassica napus), read-out: Visual Growth Reduction (%) 14 Days After Application, BRSNN
[6] = EPHHL: wild poinsettia (Euphorbia heterophylla), read-out: Visual Growth Reduction (%) 14 Days After Application, EPHHL
[7] = HELAN: sunflower (Helianthus annuus), read-out: Visual Growth Reduction (%) 14 Days After Application, HELAN
[8] = VIOTR: wild pansy (Viola tricolor), read-out: Visual Growth Reduction (%) 14 Days After Application, VIOTR
[9] = CYPES: yellow nutsedge (Cyperus esculentus), read-out: Visual Growth Reduction (%) 14 Days After Application, CYPES
[10] = DIGSA: crabgrass (Digitaria sanguinalis), read-out: Visual Growth Reduction (%) 14 Days After Application, DIGSA
[11] = ECHCG: barnyardgrass (Echinochloa crus-galli), read-out: Visual Growth Reduction (%) 14 Days After Application, ECHCG
[12] = ORYSA: rice (Oryza sativa), crop, read-out: Visual Growth Reduction (%) 14 Days After Application, ORYSA
[13] = SETFA: giant foxtail (Setaria faberi), read-out: Visual Growth Reduction (%) 14 Days After Application, SETFA
[14] = SORVU: grain sorghum (Sorghum vulgare), read-out: Visual Growth Reduction (%) 14 Days After Application, SORVU
[15] = TRZSS (wheat, Triticum aestivum), crop, read-out: Visual Growth Reduction (%) 14 Days After Application, TRZSS
[16] = ZEAMX: maize, corn (Zea mays), crop, read-out: Visual Growth Reduction (%) 14 Days After Application, ZEAMX

COc1c(N)nc(-c2ccc(I)cc2)nc1C(=O)O [Compound 88]
45 to 59%: pest or weed control at 70 g/ha [1, 8] | pest or weed control at 70 g/ha [2, 16] | pest or weed control at 140 g/ha [2, 16]
95 to 100%: pest or weed control at 140 g/ha [1, 3] | pest or weed control at 70 g/ha [1, 5] | pest or weed control at 140 g/ha [1, 5] | pest or weed control at 140 g/ha ([1]; CHEAL: lambsquarters (Chenopodium album), read-out: Visual Growth Reduction (%) 14 Days After Application, CHEAL) | pest or weed control at 70 g/ha [1, 6] | pest or weed control at 140 g/ha [1, 6] | pest or weed control at 140 g/ha [2, 9]
0 to 29%: pest or weed control at 70 g/ha [2, 10] | pest or weed control at 140 g/ha [2, 10] | pest or weed control at 70 g/ha [2, 12] | pest or weed control at 140 g/ha [2, 12]
85 to 94%: pest or weed control at 70 g/ha [1, 4] | pest or weed control at 140 g/ha [1, 4] | pest or weed control at 70 g/ha [1, 7] | pest or weed control at 140 g/ha [1, 7] | pest or weed control at 70 g/ha [2, 9] | pest or weed control at 140 g/ha [2, 13] | pest or weed control at 140 g/ha [2, 14]
75 to 84%: pest or weed control at 70 g/ha [1, 3] | pest or weed control at 70 g/ha [2, 11] | pest or weed control at 140 g/ha [2, 11] | pest or weed control at 70 g/ha [2, 14]
60 to 74%: pest or weed control at 140 g/ha [1, 8] | pest or weed control at 70 g/ha [2, 13] | pest or weed control at 70 g/ha [2, 15] | pest or weed control at 140 g/ha [2, 15]
